Experimental data from patent US7238524B2, “Prostate cancer cell lines” (Board of Regents of the University of Nebraska, priority 2001, dated 2007).

How the values were obtained:
Format in all cases: cell-based, human
LNCaP cells = assay: Effect of butyrate on LNCaP cell growth; details: butyrate treatment, FIG. 10A
Description: (§1) FIGS. 10A and 10B show a pair of graphs illustrating the effects of sodium butyrate on LNCaP cell population (FIG. 10A) accompanied by a western blot showing resolution of NSE and RPTPα expression levels in LNCaP cells in the presence of increasing concentrations of sodium butyrate (FIG. 10B).
(§2) The regulation of RPTPα expression was then investigated in prostate cancer cells. The regulation of RPTPα expression was measured using butyrate since this pharmacological reagent induces cellular differentiation and has been utilized in the clinical trials for advanced prostate cancer therapy (29). […] This 160 kDa protein may represent an isoform of RPTPα, due to post-translational modifications (27,28).

RPTPα = assay: Western blot of RPTPα expression in butyrate-treated LNCaP cells; details: increasing concentrations of sodium butyrate, FIG. 10B
Description: as §1, §2

NSE [1] = assay: Western blot of NSE expression in butyrate-treated LNCaP cells; details: increasing concentrations of sodium butyrate, FIG. 10B
Description: as §1, §2

ERK/MAPK = assay: Western blot of ERK/MAPK activation in NE-like subclone cells with MEK inhibitor; details: NE-like subclone cells (NE-1-3), FIG. 7B
From the text: (§3) FIGS. 7A-7C show three western blots. FIG. 7A is a western blot showing levels of MEK and phosphorylated MEK in LNCaP cells and three NE-like subclone cells, NE-1-3, NE-1-8 and NE-1-9. FIG. 7B is a western blot showing inhibition of ERK activation levels in the presence of the MEK inhibitor, PD098059, in NE-1-3 subclone cells. FIG. 7C is a western blot showing inhibition of NSE expression levels mediated by the MEK inhibitor, PD098059, in steroid-reduced medium.
(§4) To test the causal relationship of ERK/MAPK activation with NE-like transdifferentiation, MEKs, up-stream regulators of ERK/MAPK kinases, were examined to determine if they are also activated in the NE-like subclone cells.

NSE [2] = assay: Induction of NE transdifferentiation (NSE expression, western blot) in LNCaP cells cultured in steroid-reduced condition; details: androgen-responsive LNCaP cells in steroid-reduced condition, FIG. 7C
From the text: as §3, §4

## CCCC(=O)[O-].[Na+] [Butyrate, sodium butyrate]
LNCaP cells
  growth of LNCaP cells: growth suppression
RPTPα
  RPTPα protein expression: elevated levels
NSE [1]
  NSE protein expression: elevated levels

## COc1cccc(-c2cc(=O)c3ccccc3o2)c1N [PD098059]
ERK/MAPK
  activation of ERK/MAPK (phosphorylated ERK): effectively inhibited
NSE [2]
  induction of NE transdifferentiation (NSE expression): abolished
